A word on the Km: it is the concentration of substrate that gives half-maximal velocity.

The text below walks through data of patent US20040133936A1, “Enzyme” (priority 2000, published 2004).

Series [1] deals with T1, myrosinase from the cabbage aphid (Brevicoryne brassicae) (Brevicoryne brassicae, UniProt Q95X01).
T1 construct: The myrosinase from freeze-dried aphids was purified in five steps; from tissue; host or cells: whole freeze-dried Brevicoryne brassicae aphids
T1 sequence (Q95X01 1-464): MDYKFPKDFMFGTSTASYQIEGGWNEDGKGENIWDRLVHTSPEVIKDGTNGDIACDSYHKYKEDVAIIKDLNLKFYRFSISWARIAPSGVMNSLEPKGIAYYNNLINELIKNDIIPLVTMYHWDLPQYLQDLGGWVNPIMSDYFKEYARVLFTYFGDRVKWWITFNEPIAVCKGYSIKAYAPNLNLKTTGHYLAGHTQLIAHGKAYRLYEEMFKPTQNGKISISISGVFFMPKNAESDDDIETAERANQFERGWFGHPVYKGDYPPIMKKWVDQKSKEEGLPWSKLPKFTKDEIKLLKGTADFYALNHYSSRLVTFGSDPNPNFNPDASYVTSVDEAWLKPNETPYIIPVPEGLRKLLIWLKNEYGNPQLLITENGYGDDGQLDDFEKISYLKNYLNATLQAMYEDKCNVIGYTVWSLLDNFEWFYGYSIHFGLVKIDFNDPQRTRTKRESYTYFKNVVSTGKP
Nature of the series: Kinetic studies of aphid myrosinase (glucose released by glucosinolate hydrolysis). The following applies: for Km: substrate, read-out: apparent Km of the aphid myrosinase. It is filed as biochemical. As to the method: (§1) An assay based on the determination of glucose released by the hydrolysis of 2-propenyl glucosinolate (sinigrin) by the aphid myrosinase was used routinely to determine enzyme activity during protein purification. GOD-Perid test reagents were purchased from Boehringer Mannheim.
Enzyme solution and sinigrin (1.08 mM) in 500 μl of sodium citrate buffer (100 mM, pH 5.5) was incubated at 30° C. for 20 min. The reaction was stopped by addition of 40 μl 3M HCl (aq) and GOD-PERID reagent (2.5 ml) added to the reaction mixture and incubated for 15 min at 37° C. The optical density was read at 346 nm and the glucose concentration calculated from a calibration graph.
The present inventors have performed a number of kinetic studies on the myrosinase from the cabbage aphid (Brevicoryne brassicae) which they have characterised. […] Like the cabbage aphid, the turnip aphid (Lipaphis erysimi) myrosinase was not activated by ascorbate in the concentration range 0.1-20 mM. The KM for sinigrin is 0.42 mM for the white mustard (Sinapis alba) myrosinase.

The target of series [2] is T2, native enzyme (myrosinase) from white mustard seed (Sinapis alba) (Sinapis alba, UniProt P29736).
T2 construct: the native enzyme from white mustard seed (Sinapis alba) has been crystallised; host or cells: white mustard seed
The following applies: stable glycosyl-enzyme intermediate at the active site; cited from earlier work.

The target of series [3] is white mustard (Sinapis alba) myrosinase (Sinapis alba, UniProt P29736). The series is described as follows: KM of white mustard myrosinase. Conditions: substrate. It is filed as biochemical.
Series [4] relates to myrosinase from the mustard plant Brassica nigra. Conditions: substrates 2-propenyl and 2-hydroxy-3-butenyl glucosinolate; cited from earlier work.
Series [5] deals with T3, myrosinase from the cabbage aphid B. brassicae (Brevicoryne brassicae, UniProt Q95X01).
T3 sequence (Q95X01 1-464): T1 sequence (Q95X01 1-464)
Conditions: substrates 2-propenyl and 2-hydroxy-3-butenyl glucosinolate; cited from earlier work.

In the next series the test system is plant myrosinase. The following applies: cited from earlier work.
In series [6] the test system is turnip aphid (Lipaphis erysimi) myrosinase. The series is described as follows: Ascorbate activation of turnip aphid myrosinase. In kind it is biochemical. The following applies: concentration range 0.1-20 mM.
Series [7] in a line: Myrosinase micro assay (glucose released by hydrolysis of sinigrin). In kind it is biochemical. Conditions: sinigrin 1.08 mM, pH 5.5, 30° C. As for the experimental part:
as §1
Enzyme solution and sinigrin (1.08 mM) in 500 μl of sodium citrate buffer (100 mM, pH 5.5) was incubated at 30° C. for 20 min. The reaction was stopped by addition of 40 μl 3M HCl (aq) and GOD-PERID reagent (2.5 ml) was added to the reaction mixture and incubated for 15 min at 37° C. The optical density was read at 346 nm and the glucose concentration calculated from a calibration graph.

white mustard (Sinapis alba) myrosinase, sequence (P29736 whole entry): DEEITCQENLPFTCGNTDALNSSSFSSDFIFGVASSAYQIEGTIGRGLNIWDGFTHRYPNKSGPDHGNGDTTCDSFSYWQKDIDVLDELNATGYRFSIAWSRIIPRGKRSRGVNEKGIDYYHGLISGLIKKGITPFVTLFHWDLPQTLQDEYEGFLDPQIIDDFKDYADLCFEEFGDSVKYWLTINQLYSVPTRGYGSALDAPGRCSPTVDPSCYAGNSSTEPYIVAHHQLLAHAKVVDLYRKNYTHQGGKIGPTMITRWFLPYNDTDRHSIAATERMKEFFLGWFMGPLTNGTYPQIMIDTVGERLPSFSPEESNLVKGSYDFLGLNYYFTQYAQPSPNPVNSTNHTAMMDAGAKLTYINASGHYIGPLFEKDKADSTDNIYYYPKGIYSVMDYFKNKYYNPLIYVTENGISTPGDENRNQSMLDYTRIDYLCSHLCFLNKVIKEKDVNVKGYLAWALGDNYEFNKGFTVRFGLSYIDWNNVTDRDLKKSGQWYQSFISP
T2 sequence (P29736 whole entry): as above

Consider `O=S(=O)(O)ON=C(Cc1ccccc1)S[C@@H]1O[C@H](CO)[C@@H](O)[C@H](O)[C@H]1F` [2-deoxy-2-fluoroglucotropaeolin], for which, in series [1], the Ki result is recorded as “extremely low” and the type of inhibition entry is recorded as “competitively inhibited”. The “inhibition of the enzyme” value in series [2] is “potent inhibitor”.
On to `C=CC/C(=N/OS(=O)(=O)O)S[C@@H]1O[C@H](CO)[C@@H](O)[C@H](O)[C@H]1O` [2-propenylglucosinolate], for which the values for the Michaelis-Menten constant (Km) in series [1] and in series [3] were 613 µM and 420 µM, respectively.
For the molecule `OC[C@H]1NC[C@@H](O)[C@@H]1O` [AB1, 1,4-dideoxy-1,4-imino-D-arabinitol], in series [4], the “inhibition of plant myrosinase” value is “not significantly”. Moreover, in series [5], the “inhibition of aphid myrosinase” value is “inhibited”.
Regarding `OC[C@@H]1[C@@H](O)[C@H](O)[C@@H]2[C@@H](O)CCN21` [Alexine], the “inhibition of plant myrosinase” value in series [4] is recorded as “not significantly”. Moreover, the “inhibition of aphid myrosinase” value in series [5] is reported as “inhibited”.
For `O=C1O[C@H](CO)[C@@H](O)[C@H](O)[C@H]1O` [D-glucono-β-lactone], in the series with plant myrosinase, the “inhibition of plant myrosinase” value is “poor inhibitors”.
In the case of `OC[C@H]1N[C@H](CO)[C@@H](O)[C@@H]1O` [DMDP, (2R, 5R)-dihydroxymethyl-(3R,4R)-dihydroxypyrrolidine], the “inhibition of plant myrosinase” value in series [4] is “effectively inhibited”. For the same molecule, the “inhibition of aphid myrosinase” value in series [5] is listed as “effectively inhibited”.
Take `OC[C@H]1NC[C@H](O)[C@@H](O)[C@@H]1O` [DNJ, 1-deoxynojirimycin]: in series [4], the “inhibition of plant myrosinase” value was “not significantly”. Also, the “inhibition of aphid myrosinase” value in series [5] is on record as “inhibited”.
On to `O=C1O[C@H]([C@@H](O)CO)C(O)=C1O` [ascorbate, ascorbic acid], for which the activation by ascorbate result in series [1] (concentration range 0.1-20 mM) and in series [6] was “not activated” in each case. The “inhibition of plant myrosinases” value in the series with plant myrosinase (high concentrations) was “inhibited”. Besides, in the series with plant myrosinase (low concentrations), the “activation of plant myrosinases” value is recorded as “activated”.
For `O=S(=O)(O)O/N=C(\Cc1ccccc1)S[C@@H]1O[C@H](CO)[C@@H](O)[C@H](O)[C@H]1O` [benzyl glucosinolate], in series [1], the Km stood at 915 µM.
Turning to `O[C@H]1[C@H](O)[C@@H](O)CN2CC[C@H](O)[C@H]12` [castanospermine], in series [4], the “inhibition of plant myrosinase” value was “effectively inhibited”. For the same molecule, the “inhibition of aphid myrosinase” value in series [5] is “effectively inhibited”.

B1: Pure aphid myrosinase: myrosinase enzyme purified to homogeneity from Brevicoryne brassicae (SEQ ID NO. 1) (protein, listed as Brevicoryne brassicae)
chain: T1 sequence (Q95X01 1-464)
Regarding B1, the Specific activity in series [7] was 20.000 µmol/mg/min.
